Like-named read-outs stand apart in the source and are kept apart here.
Tests used:
[1] = Absorption of DN-1417 (14C-DN-1417) administered by various routes to rats, plasma AUC; type: in vivo; conditions: for bioavailability as compared with subcutaneous application: no absorption enhancer, 2 mg/kg
Description: Male rats of SD strain weighing ca. 300 g, which had been fasted for 24 hours, were dosed with an amount of ^14 C-DN-1417 corresponding to 2 mg/kg of DN-1417 by the rectal, nasal, oral cavity and oral routes. The dosage form for nasal, oral cavity or oral administration was either an aqueous solution or an oil solution, and for nasal administration, 0.02 ml of the solution was given with a micropipette; for oral cavity application, a wad of cotton soaked with 0.02 ml of the solution was sublingually administered; and for oral administration, 1 ml of the solution was given by gavage. For rectal administration, 0.1 ml of an aqueous solution was given using a pipette. In the case of a polyethylene glycol suppository and Witepsol W-35 (Dynamit Nobel Chemicals, West Germany) suppository, 50 mg of either suppository was deposited 1.5 cm from the anus.
After administration, 0.2 ml of blood was taken from the cordal vein at timed intervals and the plasma radioactivity was measured with a scintillation counter. Separation of the unmetabolized compound from metabolites was performed by thin-layer electrophoresis. For the evaluation of absorption rates, the area under a curve of the plasma concentration of DN-1417 over a period of 6 hours after administration [AUC (0-6 hr.)] was compared with the corresponding value obtained by subcutaneous administration to calculate the bioavailability of the drug.

[2] = parameters: species or system rats; conditions: rat, in vivo; for AUC (0-2 hr.): po, 2 mg/kg
Description: Using male SD-strain rats weighing ca. 300 g which had been fasted for 24 hours in groups of 3 animals, an amount of ^3 H-TRH equivalent to 2 mg/kg of TRH was administered by the rectal, nasal and oral routes.
The method and volume of administration, the method of collecting blood samples and the method of determination were all the same as described in Experimental Example 1. Evaluation of absorption ratio was made using as a parameter the plasma level of TRH.

SMILES	effect on absorption ([1]; addition of a hydroxycarboxylic acid)	effect on absorption ([1]; addition of amino acids, lecithin, etc.)	bioavailability as compared with subcutaneous application ([1]; nasal) [%]	bioavailability as compared with subcutaneous application ([1]; rectal) [%]	absorption from the rectal and nasal mucosa [2]	AUC (0-2 hr.) ([2]; pH 2.1) [µg·h/mL]	AUC (0-2 hr.) ([2]; pH 3.2) [µg·h/mL]
NC(=O)[C@@H]1CCCN1C(=O)[C@H](Cc1c[nH]cn1)NC(=O)C1CCC(=O)O1 (stereo partly drawn) [DN-1417, γ-butyrolactone-γ-carbonyl-L-histidyl-L-prolinamide]	remarkable improvement in absorption	does not result in any significant improvement of absorption	21	25	–	–	–
NC(=O)[C@@H]1CCCN1C(=O)[C@H](Cc1cnc[nH]1)NC(=O)[C@@H]1CCC(=O)N1 [TRH, L-pyroglutamyl-L-histidyl-L-prolinamide]	–	–	–	–	enhanced	1.1	0.7

Reference: patent US4504470A, “Pharmaceutical preparations containing TRH or its analogue” (Takeda Chemical Industries, Ltd., priority 1981, dated 1985)
